Measurements taken from paper PMC5889558, “The inhibition of human lung fibroblast proliferation and differentiation by Gs-coupled receptors is not predicted by the magnitude of cAMP response” (Respiratory Research, 2018).
Values belong to the compound of their own block, whether it stands above or below them.

Columns and labels:
[1] = system: human lung fibroblasts (HLF); experiment: Cell viability assay, caspase-3/7 as marker of apoptosis; format: cell-based; details: 24 h
Method: Cell viability was measured using caspase-3/7 expression as a marker of apoptosis after treatment for 24 h with test compounds. HLF were seeded overnight at 6,000 cells/well in 96-well black ViewPlates, before being starved for 24 hours in culture medium devoid of FBS. Cells were incubated for 24 hours in the presence of test compounds at the top concentrations used in the proliferation assays, or in the presence of 100 nM staurosporine to induce apoptosis.
The presence of the apoptotic marker caspase-3/7 was detected by incubating cells with 8 μM CellEvent™ Caspase-3/7 Red Detection Reagent in dPBS with 5 % FBS, for 30 minutes at 37°C. […] Images were analyzed using a multi wavelength cell scoring algorithm within the MetaXpress 5.3 software, which measures cell number using stained nuclei, and percent of these cells positive for caspase-3/7 from Cy5 readouts. To account for the inter-assay variation in levels of caspase 3/7 detected in each experiment, data were normalized to the staurosporine response.
Statistical significance across treatment groups was determined by using the one-way ANOVA with Dunnett’s multiple-comparison post hoc test.

[2] = system: human lung fibroblasts (HLF); experiment: HLF proliferation by BrdU incorporation (DELFIA), driven by FBS or PDGF; format: cell-based; details: 24 h; for Emax / EC50: Homo sapiens, Fibroblast; for Emax / EC50 / Proliferation vs PDGF Emax (% max) / Proliferation vs PDGF pEC50 / Proliferation vs serum pEC50 / Proliferation vs serum Emax (% max): inhibition of BrdU incorporation, NC = not calculated due to incomplete curve; for EC50 / Proliferation vs PDGF pEC50 / Proliferation vs serum pEC50: mean ± SEM
Method: (§1) Proliferation of HLF was measured by incorporation of bromodeoxyuridine (BrdU). HLF were seeded overnight at 4000 cells/well in 96-well black ViewPlates, before being starved for 24 h in culture medium devoid of FBS. Proliferation was measured after incubation with a range of concentrations of FBS or PDGF, in DMEM supplemented with 0.1% w/v HSA, for 24 h.
For anti-remodelling assays using BrdU incorporation, cells were incubated for 24 h with a range of concentrations of test compounds in the presence of near maximal concentrations of FBS or PDGF in DMEM supplemented with 0.1% w/v HSA. Proliferation was assessed using the DELFIA BrdU incorporation assay kit following manufacturer protocol. Fluorescence was measured using a Packard EnVision plate reader. To account for the inter-assay variation in levels of proliferation in each experiment, data were normalized to the PDGF or FBS response.

[3] = system: human lung fibroblasts (HLF); experiment: cAMP accumulation in HLF (HitHunter or AlphaScreen); format: cell-based; details: HLF, 2 h, mean ± SEM, NC = not calculated due to incomplete curve; for EC50 / Emax: Homo sapiens, Fibroblast; for EC50 / cAMP pEC50: room temperature, 5 μM rolipram (excluded for PDE inhibitors), at least 3 experiments; for EC50: read-out: cAMP pEC50 (converted); for Emax / cAMP Emax (% max): percentage of the maximal forskolin response; for Emax: read-out: cAMP Emax (% max)
Method: HLF were grown to confluency in 96-well white ViewPlates, before incubation with a range of agonist concentrations, or vehicle, for 2 h at room temperature in HBSS with 5 mM HEPES, 0.1% w/v HSA, and 5 μM rolipram. […] Rolipram was excluded when measuring cAMP levels in response to PDE inhibitors. cAMP levels were measured using either HitHunter cAMP assay or AlphaScreen competition assay following manufacturer protocol, and were assessed on either a BMG LABTEK ClarioStar or a Packard EnVision plate reader. cAMP concentrations in each well were determined using a standard curve. To account for the inter-assay variation in levels of cAMP produced in each experiment, data were normalized to the maximal forskolin response.

[4] = Agonist concentration remaining after incubation with HLF; format: in vitro ADME, human; details: after 24 h incubation with HLF; unpublished data
[5] = system: human lung fibroblasts (HLF); experiment: PDGF-mediated ERK phosphorylation (pERK imaging); format: cell-based; details: 30 min pre-incubation, 3 ng/mL PDGF for 10 min
Method: HLF were seeded overnight at 6000 cells/well in 96-well black clear bottom plates then starved for 24 h in the growth medium devoid of all additives. […] Fluorescence was then quantified on the InCell2000, using DAPI settings to visualize nuclei (0.1 s exp) and FITC settings for pERK (2 s exp). To quantify levels of pERK fluorescence, a standard Multi-Target Analysis algorithm was used in the INCell Analyzer Workstation (v3.7.1). To account for the inter-assay variation in levels of ERK phosphorylation produced in each experiment, data were normalized to the EC80 PDGF response.

[6] = system: human lung fibroblasts (HLF); experiment: Fibroblast to myofibroblast transdifferentiation (FMT), αSMA immunofluorescence, TGFβ-driven; format: cell-based; details: 48 h, TGFβ 0.3 ng/mL
Method: To assess the differentiation of fibroblasts to the myofibroblast phenotype, immunofluorescence was used to monitor increases in α smooth muscle actin (αSMA). HLF were seeded overnight at 1000 cells/well in 384-well black clear bottom plates, before being starved for 24 h growth medium devoid of FBS.
For anti-remodelling assays using FMT, cells were incubated for 48 h with a range of concentrations of test compounds and incubated for 48 h, at 37°C, 5% CO2 in the presence of a near maximal concentration of TGFβ (0.3 ng/mL), to promote differentiation in DMEM supplemented with 0.1% w/v HSA. Following stimulation, cells were fixed in 4% paraformaldehyde, washed 3× in PBS (with Ca^2+/Mg^2+), and incubated with permeabilising blocking buffer (dPBS (with Ca^2+/Mg^2+), 10% FBS (v/v), 0.1% Triton X-100 (v/v)) for 1 h at 37°C. Wells were then washed 3× in wash buffer (Tris Buffered Saline (TBS), 0.05% (v/v) Tween-20) and incubated with mouse anti-α SMA (1:1000 dilution in permeabilising blocking buffer) for 1 h at room temperature, with gentle shaking. Following 3× wash in wash buffer, wells were incubated with blocking buffer containing Hoechst to stain for nuclear DNA (2 μM), and FITC-conjugated Affini-pure goat […] IgG (1:1000 dilution in blocking buffer) for 30 min at 37°C. Fluorescence was then quantified on a widefield ImageXpress Micro microscope, with a Plan Fluor 20X objective, DAPI filter cube (excitation 400–418 nm, emission 435–470 nm), 50 ms exposure time for nuclei, and FITC filter cube (excitation 467–498 nm, emission 513–556 nm), 200 ms exposure time for αSMA.
To quantify increases in αSMA fluorescence, a standard Multi-Wavelength Cell Scoring algorithm was used in MetaXpress 5.3 software (Molecular Devices, California, USA). To account for the inter-assay variation in levels of αSMA expression produced in each experiment, data were normalized to the response to TGFβ.

[7] = system: human lung fibroblasts (HLF); experiment: HLF proliferation by nuclei count; format: cell-based
Method: as §1, with “nuclei count. Human lung fibroblasts (HLF)” for “incorporation of bromodeoxyuridine (BrdU). HLF”, “4,000” for “4000”, “0.1 %” for “0.1%”, “24, 48, 72, or 96 h for nuclei count assay.” for “24 h.”
For anti-remodelling assays, cells were incubated for 48 h with a range of concentrations of test compounds in the presence of an EC80 concentration of FBS (1.8 % v/v). Following stimulation, cells were fixed with 4 % PFA and nuclei stained with Hoechst 33342 (1 μM) for 15 minutes at room temperature. Cells were then washed three times with dPBS before the plate was read using the widefield ImageXpress Micro microscope, with a Plan Fluor 4X objective, DAPI filter cube (excitation 400-418nm, emission 435-470nm), and 50 ms exposure time. Images were analysed using a nuclear count algorithm within the MetaXpress 5.3 software (Molecular Devices, California, USA). To account for the inter-assay variation in levels of proliferation in each experiment, data were normalized to the EC80 FBS response.

[8] = system: human lung fibroblasts (HLF); experiment: Fibroblast to myofibroblast transdifferentiation (FMT), αSMA immunofluorescence, TGFβ-driven; format: cell-based; details: data not shown
[9] = EC80 PDGF, percentage of maximal proliferation observed with PDGF, read-out: Proliferation vs PDGF Emax (% max)
[10] = EC80 concentration of PDGF, read-out: Proliferation vs PDGF pEC50 (converted)
[11] = EC80 concentration of serum, read-out: Proliferation vs serum pEC50 (converted)
[12] = EC80 serum, percentage of maximal proliferation observed with serum, read-out: Proliferation vs serum Emax (% max)
[13] = HLF, 1:10 dilution of top conc 10 μM
[14] = HLF, top conc 10 μM, mean ± SEM, n=3
[15] = EC80 PDGF, percentage of maximal proliferation observed with PDGF
[16] = EC80 serum, percentage of maximal proliferation observed with serum

original concentration of agonist remaining [4]: > 90%
Compound: CCCCC[C@H](O)CC[C@@H]1[C@H]2Cc3cccc(OCC(=O)O)c3C[C@H]2C[C@H]1O [Treprostinil]
% cells positive for caspase-3/7, 1:10 dilution ([1]; human, 1 μM): 0.92 ± 0.25% | % cells positive for caspase-3/7, Top conc ([1]; human, 10 μM): 0.76 ± 0.06% | Emax [2, 9]: 63.7 ± 6.39% | EC50 [2, 10]: 29.5 nM | EC50 [2, 11]: 102 nM | Emax [2, 12]: 42.5 ± 5.36% | EC50 [3]: 151 nM | Emax [3]: 101 ± 0.58%

Compound: C=C[C@@]1(C)CC(=O)[C@]2(O)[C@@]3(C)[C@@H](O)CCC(C)(C)[C@@H]3[C@H](O)[C@H](OC(C)=O)[C@@]2(C)O1 [Forskolin]
% cells positive for caspase-3/7, 1:10 dilution ([1]; human, 3 μM): 0.61 ± 0.15% | % cells positive for caspase-3/7, Top conc ([1]; human, 30 μM): 1.26 ± 0.35% | Emax [2, 9]: 90.8 ± 9.12% | EC50 [2, 10]: 1050 nM | EC50 [2, 11]: 5250 nM | Emax [2, 12]: 74 ± 6.7% | inhibition of PDGF-mediated ERK phosphorylation (in words) [5]: inhibited PDGF-mediated ERK phosphorylation | inhibition of TGFβ-driven FMT (in words) [6]: completely inhibit FMT

Compound: AGN-205204
% cells positive for caspase-3/7, 1:10 dilution [1, 13]: 0.56 ± 0.09% | % cells positive for caspase-3/7, Top conc [1, 14]: 0.57 ± 0.09% | Proliferation vs PDGF Emax (% max) [2, 15]: 101 ± 3.71 % max | Proliferation vs PDGF pEC50 ([2]; EC80 concentration of PDGF): 7.45 ± 0.25 | Proliferation vs serum pEC50 ([2]; EC80 concentration of serum): 6.91 ± 0.48 | Proliferation vs serum Emax (% max) [2, 16]: 51.3 ± 8.89 % max | cAMP pEC50 [3]: 6.62 ± 0.12 | cAMP Emax (% max) [3]: 49.7 ± 3.84 % max | maximal level of inhibition of FMT [6]: 71 % of the TGFβ response

Compound: NCCc1ccc(O)c(O)c1 [Dopamine]
% cells positive for caspase-3/7, 1:10 dilution ([1]; human, 3 μM): 1.21 ± 0.34% | % cells positive for caspase-3/7, Top conc ([1]; human, 30 μM): 0.83 ± 0.14% | Emax [2, 9]: 73.5 ± 13.5% | EC50 [2, 10]: 16600 nM | EC50 [3]: 4070 nM | Emax [3]: 41.2 ± 10% | inhibition of TGFβ-driven FMT (in words) [6]: full concentration-response curves could not be established

Compound: N#Cc1c(N)nc(SCC(N)=O)c(C#N)c1-c1ccc(OCC2CC2)cc1 [BAY60–6583]
% cells positive for caspase-3/7, 1:10 dilution ([1]; HLF, 1:10 dilution of top conc 30 μM): 1.04 ± 0.38% | % cells positive for caspase-3/7, Top conc ([1]; HLF, top conc 30 μM): 0.62 ± 0.14% | inhibition of FBS- and PDGF-driven proliferation (in words) ([2]; BrdU, either stimulus): fully inhibit both FBS- and PDGF-driven proliferation | maximal level of inhibition of serum-driven proliferation ([2]; BrdU, near maximal FBS): 100% | maximal level of inhibition of PDGF-driven proliferation ([2]; BrdU, near maximal PDGF): 100% | Proliferation vs PDGF Emax (% max) [2, 15]: 100 ± 0.01 % max | Proliferation vs PDGF pEC50 ([2]; EC80 concentration of PDGF): 5.30 ± 0.12 | Proliferation vs serum pEC50 ([2]; EC80 concentration of serum): 5.30 ± 0.16 | Proliferation vs serum Emax (% max) [2, 16]: 100 ± 0.01 % max | cAMP pEC50 [3]: 6.57 ± 0.06 | cAMP Emax (% max) [3]: 10.2 ± 2.89 % max | inhibition of TGFβ-driven FMT (in words) [6]: completely inhibit FMT

Compound: Platelet-derived growth factor [PDGF]
maximal proliferation (BrdU incorporation) ([2]; normalized to maximal proliferation observed with 10% serum): 41.0 ± 8.62% | EC50 for stimulation of proliferation (nuclei count) ([7]; 72 h treatment): 3.77 ± 0.13 ng/mL | EC50 for stimulation of proliferation (nuclei count) ([7]; 96 h treatment): 7.26 ± 3.23 ng/mL | maximal proliferation (nuclei count) ([7]; 96 h treatment): 29.2 ± 15.2 % of the maximal serum response

Compound: OCc1cc(C(O)CNCCCCCCOCCCCc2ccccc2)ccc1O (stereo not shown) [Salmeterol]
% cells positive for caspase-3/7, 1:10 dilution ([1]; human, 10 nM): 0.66 ± 0.24% | % cells positive for caspase-3/7, Top conc ([1]; human, 100 nM): 0.40 ± 0.12% | Emax [2, 9]: 89.2 ± 0.27% | EC50 [2, 10]: 0.0316 nM | EC50 [2, 11]: 0.263 nM | Emax [2, 12]: 37.7 ± 7.33% | EC50 [3]: 0.123 nM | Emax [3]: 45.8 ± 3.53% | maximal level of inhibition of FMT [6]: 51 % of the TGFβ response

original concentration of agonist remaining [4]: > 90%
Compound: CC(C)N(CCCCOCC(=O)O)c1cnc(-c2ccccc2)c(-c2ccccc2)n1 [MRE-269]
% cells positive for caspase-3/7, 1:10 dilution [1, 13]: 0.49 ± 0.22% | % cells positive for caspase-3/7, Top conc [1, 14]: 0.49 ± 0.21% | Emax [2, 9]: 85.7 ± 7.65% | EC50 [2, 10]: 316 nM | EC50 [3]: 178 nM | Emax [3]: 52.9 ± 4.36% | inhibition of TGFβ-driven FMT (in words) [6]: completely inhibit FMT

Compound: Transforming growth factor β [TGFβ]
EC50 for promoting FMT [8]: 0.07 ± 0.01 ng/mL
